Measurements taken from the NIST ThermoML archive (doi:10.1016/j.jct.2017.07.008).
“And” between values parts separate entries of the source, which are not always exact repeats. Equal values may be shown once.

Settings: for mass density / viscosity / speed of sound / vapor or sublimation pressure: Liquid; for mass density: Vibrating tube method; for surface tension liquid-gas: Drop volume; for viscosity: Capillary tube (Ostwald / Ubbelohde) method; for speed of sound: Frequency=3 MHz, Single path-length method; for vapor or sublimation pressure: Ebulliometric method (Recirculating still)

OCc1cccs1 [2-thiophenemethanol]
Settings | mass density | speed of sound [m/s] | viscosity [mPa·s]
313.15 K, 55000 kPa | 1216.51 kg/m3 | – | –
313.15 K, 60000 kPa | 1218.68 kg/m3 | – | –
313.15 K, 65000 kPa | 1220.8 kg/m3 | – | –
315.65 K, 100 kPa | 1186.63 kg/m3 | 1450.4 | 4.147
318.15 K, 100 kPa | 1184.39 kg/m3 | 1443.2 | 3.87
318.15 K, 2000 kPa | 1185.52 kg/m3 | – | –
318.15 K, 5000 kPa | 1187.27 kg/m3 | – | –
318.15 K, 7000 kPa | 1188.42 kg/m3 | – | –
318.15 K, 10000 kPa | 1190.12 kg/m3 | – | –
318.15 K, 15000 kPa | 1192.88 kg/m3 | – | –
318.15 K, 20000 kPa | 1195.57 kg/m3 | – | –
318.15 K, 25000 kPa | 1198.18 kg/m3 | – | –
318.15 K, 30000 kPa | 1200.72 kg/m3 | – | –
318.15 K, 35000 kPa | 1203.2 kg/m3 | – | –
318.15 K, 40000 kPa | 1205.62 kg/m3 | – | –
318.15 K, 45000 kPa | 1207.98 kg/m3 | – | –
318.15 K, 50000 kPa | 1210.29 kg/m3 | – | –
318.15 K, 55000 kPa | 1212.54 kg/m3 | – | –
318.15 K, 60000 kPa | 1214.74 kg/m3 | – | –
318.15 K, 65000 kPa | 1216.9 kg/m3 | – | –
320.65 K, 100 kPa | 1182.14 kg/m3 | 1436 | 3.615
323.15 K, 100 kPa | 1179.88 kg/m3 | 1428.8 | 3.355
323.15 K, 2000 kPa | 1181.03 kg/m3 | – | –
323.15 K, 5000 kPa | 1182.82 kg/m3 | – | –
323.15 K, 7000 kPa | 1183.99 kg/m3 | – | –
323.15 K, 10000 kPa | 1185.73 kg/m3 | – | –
323.15 K, 15000 kPa | 1188.55 kg/m3 | – | –
323.15 K, 20000 kPa | 1191.29 kg/m3 | – | –
323.15 K, 25000 kPa | 1193.95 kg/m3 | – | –
323.15 K, 30000 kPa | 1196.55 kg/m3 | – | –
323.15 K, 35000 kPa | 1199.07 kg/m3 | – | –
323.15 K, 40000 kPa | 1201.53 kg/m3 | – | –
323.15 K, 45000 kPa | 1203.93 kg/m3 | – | –
323.15 K, 50000 kPa | 1206.28 kg/m3 | – | –
323.15 K, 55000 kPa | 1208.56 kg/m3 | – | –
323.15 K, 60000 kPa | 1210.8 kg/m3 | – | –
323.15 K, 65000 kPa | 1212.99 kg/m3 | – | –
325.65 K, 100 kPa | 1177.63 kg/m3 | 1421.6 | 3.17
328.15 K, 100 kPa | 1175.35 kg/m3 and 1175.36 kg/m3 | 1414.5 | 2.957
328.15 K, 2000 kPa | 1176.53 kg/m3 | – | –
328.15 K, 5000 kPa | 1178.35 kg/m3 | – | –
328.15 K, 7000 kPa | 1179.55 kg/m3 | – | –
328.15 K, 10000 kPa | 1181.33 kg/m3 | – | –
328.15 K, 15000 kPa | 1184.21 kg/m3 | – | –
328.15 K, 20000 kPa | 1187 kg/m3 | – | –
328.15 K, 25000 kPa | 1189.72 kg/m3 | – | –
328.15 K, 30000 kPa | 1192.36 kg/m3 | – | –
328.15 K, 35000 kPa | 1194.93 kg/m3 | – | –
328.15 K, 40000 kPa | 1197.44 kg/m3 | – | –
328.15 K, 45000 kPa | 1199.88 kg/m3 | – | –
328.15 K, 50000 kPa | 1202.26 kg/m3 | – | –
328.15 K, 55000 kPa | 1204.58 kg/m3 | – | –
328.15 K, 60000 kPa | 1206.86 kg/m3 | – | –
328.15 K, 65000 kPa | 1209.08 kg/m3 | – | –
330.65 K, 100 kPa | 1173.09 kg/m3 | 1407.3 | 2.785
333.15 K, 100 kPa | 1170.8 kg/m3 and 1170.82 kg/m3 | 1400.1 | 2.628
333.15 K, 2000 kPa | 1172 kg/m3 | – | –
333.15 K, 5000 kPa | 1173.87 kg/m3 | – | –
333.15 K, 7000 kPa | 1175.1 kg/m3 | – | –
333.15 K, 10000 kPa | 1176.91 kg/m3 | – | –
333.15 K, 15000 kPa | 1179.85 kg/m3 | – | –
333.15 K, 20000 kPa | 1182.7 kg/m3 | – | –
333.15 K, 25000 kPa | 1185.47 kg/m3 | – | –
333.15 K, 30000 kPa | 1188.16 kg/m3 | – | –
333.15 K, 35000 kPa | 1190.78 kg/m3 | – | –
333.15 K, 40000 kPa | 1193.33 kg/m3 | – | –
333.15 K, 45000 kPa | 1195.82 kg/m3 | – | –
333.15 K, 50000 kPa | 1198.24 kg/m3 | – | –
333.15 K, 55000 kPa | 1200.6 kg/m3 | – | –
333.15 K, 60000 kPa | 1202.91 kg/m3 | – | –
333.15 K, 65000 kPa | 1205.17 kg/m3 | – | –
335.65 K, 100 kPa | 1168.53 kg/m3 | 1392.9 | 2.486
338.15 K, 100 kPa | 1166.23 kg/m3 and 1166.25 kg/m3 | 1385.8 | 2.372
338.15 K, 2000 kPa | 1167.46 kg/m3 | – | –
338.15 K, 5000 kPa | 1169.37 kg/m3 | – | –
338.15 K, 7000 kPa | 1170.63 kg/m3 | – | –
338.15 K, 10000 kPa | 1172.48 kg/m3 | – | –
338.15 K, 15000 kPa | 1175.48 kg/m3 | – | –
338.15 K, 20000 kPa | 1178.39 kg/m3 | – | –
338.15 K, 25000 kPa | 1181.22 kg/m3 | – | –
338.15 K, 30000 kPa | 1183.96 kg/m3 | – | –
338.15 K, 35000 kPa | 1186.63 kg/m3 | – | –
338.15 K, 40000 kPa | 1189.22 kg/m3 | – | –
338.15 K, 45000 kPa | 1191.75 kg/m3 | – | –
338.15 K, 50000 kPa | 1194.21 kg/m3 | – | –
338.15 K, 55000 kPa | 1196.62 kg/m3 | – | –
338.15 K, 60000 kPa | 1198.96 kg/m3 | – | –
338.15 K, 65000 kPa | 1201.25 kg/m3 | – | –

Settings | surface tension liquid-gas [mN/m] | vapor or sublimation pressure [kPa]
315.65 K | 41.73 | –
318.15 K | 41.48 | –
320.65 K | 41.22 | –
323.15 K | 40.95 | –
325.65 K | 40.67 | –
328.15 K | 40.4 | –
330.65 K | 40.1 | –
333.15 K | 39.8 | –
335.65 K | 39.51 | –
338.15 K | 39.24 | –
351.15 K | – | 0.545
354.25 K | – | 0.665
357.17 K | – | 0.785
361.3 K | – | 1.025
365.19 K | – | 1.275
366.38 K | – | 1.355
367.49 K | – | 1.415
368.14 K | – | 1.475
369.77 K | – | 1.61
372.56 K | – | 1.88
373.21 K | – | 1.96
377.74 K | – | 2.44
382.13 K | – | 3.06
386.07 K | – | 3.675
387.56 K | – | 3.93
388.56 K | – | 4.15
391.84 K | – | 4.77
393.87 K | – | 5.25
397.94 K | – | 6.25
399.72 K | – | 6.8
402.41 K | – | 7.6
404.37 K | – | 8.25
406.56 K | – | 9
408.27 K | – | 9.665
411.5 K | – | 10.96
415.06 K | – | 12.6
416.56 K | – | 13.38
418.63 K | – | 14.47
420.23 K | – | 15.36
422.21 K | – | 16.51
424.64 K | – | 18.05
426.07 K | – | 19
428.27 K | – | 20.52
429.37 K | – | 21.34
431.17 K | – | 22.77
432.56 K | – | 23.88
433.65 K | – | 24.78
